Source: PMC5047949, “Kinetic analysis of the translocator protein positron emission tomography ligand [^18F]GE-180 in the human brain” (European Journal of Nuclear Medicine and Molecular Imaging, 2016)

Experiments:
[1] = design: method as in PMID 26072270; settings: 60 min; earlier preclinical work; cited from earlier work
[2] = humans; in vitro work, not measured in this study; cited from earlier work
[3] = Arterial whole-blood and plasma activity, and parent fraction by HPLC; assay type: in vivo, human
Method: Arterial blood activity was measured every second for the first 15 min of the 90-min scan using an automated blood sampling system (ABSS Allog, Mariefred, Sweden) connected to the subject via a 1.5 m × 1.0 mm diameter polytetrafluoroethylene line (blood withdrawal rate 2.5 ml/min). In addition, blood samples (10 mL) were collected manually from the radial artery at 0, 5, 10, 15, 30, 50, 70 and 90 min to assay whole-blood and plasma activity. Plasma was obtained by centrifugation for 3 min at 1,800 g. Activity in whole blood and plasma was measured in a CAPRAC-t well counter over 10 – 60 s. The first 15 min of continuous whole-blood activity was combined with the activity from discrete samples to generate the whole-blood activity curve for use in data modelling. The continuous plasma-to-blood ratio was estimated using a constant model and a total plasma activity curve was obtained by correcting the whole-blood curve for this partition between plasma and blood.
The parent fraction of [^18F]GE-180 was measured by high-performance liquid chromatography (Agilent 1,100 and 1,260 series) of discrete plasma samples (3.5 mL). The parent fraction was fitted to a single exponential plus a constant model. The total plasma activity was multiplied by this parent fraction and then smoothed post peak by fitting to a triexponential function to generate an arterial parent plasma input function. A delay correction of up to +30 s was applied to the input function prior to fitting the kinetic modelling. This was performed to account for delay in the 1.5-m tube (28.3 s) and delay between the radial artery and the brain.

CCN(CC)C(=O)[C@H]1CCCc2c1c1c(OC)cccc1n2CC[18F] [[^18F]GE-180]
parent in the brain [1]: 94%
plasma free fraction [2]: approximately 3%
intact parent tracer remaining ([3]; 90 min, plasma): 70%
time of peak concentration in plasma ([3]; arterial plasma after i.v. bolus): about 45 s
plasma-to-blood ratio ([3]; constant across subjects): about 1.69
polar radioactive metabolites (three) in plasma ([3]; over the 90 min scanning window): < 10 % of parent compound
